Measurements taken from patent publication US6930103B2, “Use of vasopeptidase inhibitors in the treatment of metabolic diseases, nephropathy and advanced glycation end-product associated diseases” (Aventis Pharma Deutschland GmbH, priority 2002, dated 2005).

How the values were obtained:
Assay type in all cases: in vivo, rat
fat ZDF rats = assay: Histological examination of kidneys of ZDF rats after 6 months treatment; settings: in words
Method: The protein and creatinine excretion in the urine of male Zucker Diabetic Fatty (ZDF) Rats (ZDF Gmi fa/fa) and heterozygous control animals (ZDF Gmi −/+) of 10, 17, 27 and 37 weeks age was determined. In further groups, diabetic rats were chronically given either ramipril (1 mg/kg/day, in drinking water) or a compound of formula (II-B) (30 mg/kg/day, in food) over a period from 10 to 37 weeks. The animals were sacrificied after 37 weeks, and their kidneys examined histologically.
In the attached tables a summary of the findings on the kidneys after a treatment period of 6 months is listed.

ZDF rats [1] = assay: Dot blot analysis of kidney AGE subtypes (CML, CEL, pentosidine) in ZDF rats
Method: (§1) Kidney AGE values were determined by Dot blot analysis (Stracke et al., Exp. Clin. Endocrinol. Diabets 2002, 109, 330-336) and Reversed-phase high performance liquid chromatography or RP-HPLC (Drusch et al., Food Chem. 1999, 65, 547-553).
Kidney-samples for the dot blot analysis were obtained from 17-week-old male ZDF rats, control rats and ZDF rats treated for seven weeks with 30 mg/kg/d of compound (II-B) and 35 mg/kg/d of compound (III-B). Three animals of each group were sacrificed, the kidneys removed and immediately frozen in liquid nitrogen. Grinding of the kidneys was performed in liquid nitrogen using a freezer mill (Freezer 6750, C3 Analysetechnik GmbH). Kidney sample (10 mg) was dissolved in 1 ml phosphate buffered saline (PBS containing 0.5 g/l Tween 20, 0.5 mM PMSF, […]). The solution was treated two times for five seconds with an ultrasonic cell disrupter (45% power, Bandolin Sonoplus HD 2070), centrifuged for 20 minutes at 4000 rpm and the supernatant was used for dot blot analysis. The nitrocellulose membrane was placed in the dot blot apparatus and washed twice with Tris Buffered Saline (TBS), 100 μl TBS/well. For each sample, 10 μg protein (protein concentration of the samples were determined with the DC Protein Assay, Bio Rad) was diluted in 100 μl TBS and loaded on to the nitrocellulose membrane (Amersham). The membrane was incubated over night in TBS with Tween 20 (TBST; 20 mM Tris, 137 mM NaCl, 0.05% v/v Tween 20) with 5% non-fat dry milk at 4° C. and incubated for 1 hour at room temperature using the following antibody concentration: anti-CML 011 (Biologo) 0.25 μg/ml, anti-CEL (Biologo) 0.25 μg/ml and anti-pentosidine 012 (Biologo) 0.25 μg/ml. After extensive washing in TBST with 5% non-fat dry milk, membranes were exposed to […] anti-mouse IgG antibodies (Dianova) for one hour at room temperature. Membranes were washed again and exposed to the enhanced chemofluorescence detection system (Amersham) according to manufacturer's instructions. Relative fluorescence was determined with the Fluor-Imager 595 (Molecular Dynamics) and quantified using the Image-Quant software. Results were expressed in relative fluorescence (rf) times 10^5 (rf*10^5).

ZDF rats [2] = assay: RP-HPLC analysis of CML in kidney and heart of ZDF rats; settings: for mean CML conc.: RP-HPLC, ZDF Placebo = 100
Method: as §1
[…] Two animals of each group were analyzed. Grinding of the kidney and heart was performed in liquid nitrogen using a freezer mill (Freezer 6750, C3 Analysetechnik GmbH). Hydrolysis of the organ samples was performed with 6 M hydrochloric acid (HCl) at 110° C. for 12 hours. Sample treatment with o-phthaldialdehyde (OPA) and RP-HPLC was performed as described in Drusch et al., Food Chem. 1999, 65, 547-553.

[3] = test system: Zucker diabetic fatty rats; assay: Blood glucose analysis in ZDF rats; settings: for blood glucose, mean: ZDF rats
Method: (§2) Blood glucose and HbA1c was measured in 10- and 17-week-old male Zucker diabetic fatty rats (Genetic Model Inc.), control rats (Genetic Model Inc.) and male ZDF rats treated for seven weeks with 30 mg/kg/d of compound (II-B), 35 mg/kg/d of compound (III-B) and 1 mg/kg/d ramipril. Fifteen animals were analyzed in each group.
Blood samples for glucose determination were obtained from ZDF rats using standard sampling tubes. Within 30 minutes of collection, samples were separated from the cells by centrifugation. Quantitative determination of blood glucose in serum was performed with an enzymatic in vitro test from Roche Diagnostics GmbH (Gluco-quant, Roche Diagnostics GmbH) using the automated clinical chemistry analyzer Boehringer Mannheim/Hitachi 912.

[4] = test system: Zucker diabetic fatty rats; assay: HbA1c analysis in ZDF rats; settings: for HbA1c, mean: ZDF rats
Method: as §2
To obtain blood samples for HbA1c determination, disposable capillary tubes were used. HbA1c values were obtained from hemolyzed whole blood samples with a turbidimetric inhibition immunoassay (Tina-quant, Roche Diagnostics GmbH) and hemoglobin concentrations were determined in a second channel on an automated clinical chemistry analyzer (Boehringer Mannheim/Hitachi 912). HbA1c concentration in percent were calculated from HbA1c to total hemoglobin.

[5] = 17-week-old ZDF rats treated for seven weeks, dot blot
[6] = age 10 weeks (start of treatment)
[7] = age 17 weeks (treated for seven weeks)

Structure (SMILES): CC(=O)S[C@@H](Cc1ccccc1)C(=O)N[C@H]1Cc2ccccc2[C@H]2CCC[C@@H](C(=O)O)N2C1=O [cpd. (III-B)]
- Incidence of glomerulosclerosis or associated degenerative lesions compared to fat ZDF controls (fat ZDF rats): no differences
- AGE-subtype CEL in the kidneys (anti-CEL), mean (ZDF rats [1]; [5]): 52.60 rf * 10^5
- AGE-subtype CML in the kidneys (anti-CML 011), mean (ZDF rats [1]; [5]): 38.67 rf * 10^5
- AGE-subtype pentosidine in the kidneys (anti-pentosidine 012), mean (ZDF rats [1]; [5]): 40.70 rf * 10^5
- Kidney AGE (Nε-(carboxymethyl)lysine or CML) values (ZDF rats [1]; diabetic rats, summary in words): lowers the CML value significantly
- AGE values for subtype CEL compared to untreated ZDF rats (ZDF rats [1]; kidney, dot blot, in words): Lower AGE values
- AGE values for subtype pentosidine compared to untreated ZDF rats (ZDF rats [1]; kidney, dot blot, in words): Lower AGE values
- mean CML conc. (ZDF rats [2]; hearts of 17-week-old ZDF rats): 66%
- mean CML conc. (ZDF rats [2]; kidneys of 17-week-old ZDF rats): 60%
- mean CML conc. (ZDF rats [2]; kidneys of 37-week-old ZDF rats): 93%
- CML concentration in the heart of 17-week-old ZDF rats (ZDF rats [2]; in words): also reduces
- CML concentration in the kidneys of 17-week-old ZDF rats (ZDF rats [2]; in words): also reduces
- Blood glucose concentration compared to the untreated ZDF rats ([3]; 17-week-old ZDF rats, in words): significantly lower
- blood glucose, mean [3, 6]: 10.37 mM
- blood glucose, mean [3, 7]: 19.74 mM
- Blood glucose value compared with the ACE inhibitor ramipril ([3]; in words): lower values
- HbA1c values compared to the untreated ZDF rats ([4]; 17-week-old ZDF rats, in words): significantly lower
- HbA1c, mean [4, 6]: 5.60%
- HbA1c, mean [4, 7]: 7.19%
- HbA1c value compared with the ACE inhibitor ramipril ([4]; in words): lower values
